Data from patent US6599940B2, “Synthesis of 2-hydroxymethylglutamic acid and congeners thereof” (Georgetown University, priority 2000, dated 2003).

What was measured:
Settings in all cases: result in words, no method or number given
Group 3 mGluRs = assay: Effect on Group 3 mGluRs
Group 1 mGluRs = assay: Effect on Group 1 mGluRs
mGluR2 = mGluR2 (Homo sapiens, UniProt Q14416); assay: Antagonist activity at mGluR2
mGluR3 = mGluR3 (Homo sapiens, UniProt Q14832); assay: Agonist activity at the Group 2 receptor mGluR3
Chain of mGluR3 (Q14832 23-879): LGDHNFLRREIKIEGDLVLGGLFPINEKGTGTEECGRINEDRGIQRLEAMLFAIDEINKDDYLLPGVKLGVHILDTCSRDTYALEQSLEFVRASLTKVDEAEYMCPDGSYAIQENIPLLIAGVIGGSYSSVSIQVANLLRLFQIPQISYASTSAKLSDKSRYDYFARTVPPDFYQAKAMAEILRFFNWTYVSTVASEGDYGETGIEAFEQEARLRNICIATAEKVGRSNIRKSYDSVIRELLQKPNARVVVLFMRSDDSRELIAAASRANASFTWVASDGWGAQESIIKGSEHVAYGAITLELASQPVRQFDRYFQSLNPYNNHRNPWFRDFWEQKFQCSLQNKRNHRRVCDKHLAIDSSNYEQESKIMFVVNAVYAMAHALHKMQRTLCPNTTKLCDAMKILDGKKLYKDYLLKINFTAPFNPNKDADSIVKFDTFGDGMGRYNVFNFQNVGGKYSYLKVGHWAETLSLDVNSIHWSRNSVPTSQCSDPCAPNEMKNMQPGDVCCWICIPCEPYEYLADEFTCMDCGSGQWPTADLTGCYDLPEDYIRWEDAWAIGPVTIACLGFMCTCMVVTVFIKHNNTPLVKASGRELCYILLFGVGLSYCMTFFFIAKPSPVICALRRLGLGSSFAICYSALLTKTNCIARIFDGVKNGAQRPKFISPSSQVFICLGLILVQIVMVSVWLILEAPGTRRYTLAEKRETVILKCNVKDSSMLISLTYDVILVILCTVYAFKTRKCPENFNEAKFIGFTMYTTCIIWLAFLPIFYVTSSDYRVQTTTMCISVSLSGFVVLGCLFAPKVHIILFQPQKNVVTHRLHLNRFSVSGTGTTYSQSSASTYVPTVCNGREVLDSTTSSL

Chain of mGluR2 (Q14416 19-872): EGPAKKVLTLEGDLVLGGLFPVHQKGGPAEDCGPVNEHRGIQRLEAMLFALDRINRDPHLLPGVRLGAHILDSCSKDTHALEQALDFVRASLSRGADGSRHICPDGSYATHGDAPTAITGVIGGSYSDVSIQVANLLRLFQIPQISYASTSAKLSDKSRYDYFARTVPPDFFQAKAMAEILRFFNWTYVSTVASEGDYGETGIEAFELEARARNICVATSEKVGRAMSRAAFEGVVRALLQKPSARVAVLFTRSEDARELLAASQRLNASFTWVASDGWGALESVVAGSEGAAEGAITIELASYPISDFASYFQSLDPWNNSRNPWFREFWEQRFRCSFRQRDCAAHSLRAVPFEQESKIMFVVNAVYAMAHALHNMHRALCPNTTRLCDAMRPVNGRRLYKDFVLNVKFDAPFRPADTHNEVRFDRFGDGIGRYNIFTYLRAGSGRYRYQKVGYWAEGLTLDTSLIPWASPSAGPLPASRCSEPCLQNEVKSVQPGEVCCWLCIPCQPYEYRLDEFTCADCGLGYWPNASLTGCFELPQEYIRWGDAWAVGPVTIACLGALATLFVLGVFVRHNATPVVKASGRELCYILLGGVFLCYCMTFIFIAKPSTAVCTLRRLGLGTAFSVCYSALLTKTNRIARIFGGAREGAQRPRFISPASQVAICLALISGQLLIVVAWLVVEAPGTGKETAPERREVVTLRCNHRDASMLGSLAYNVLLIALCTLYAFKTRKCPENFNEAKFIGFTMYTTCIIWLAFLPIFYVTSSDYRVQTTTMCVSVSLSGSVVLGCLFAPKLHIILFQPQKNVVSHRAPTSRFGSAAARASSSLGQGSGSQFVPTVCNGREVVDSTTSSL

N[C@@](CO)(CCC(=O)O)C(=O)O [Compound 1, (R)-2(Hydroxymethyl)glutamic acid]
effect on the Group 3 mGluRs (Group 3 mGluRs): little or no effect | effect on the Group 1 mGluRs (Group 1 mGluRs): little or no effect | activity at mGluR2 (mGluR2): weak antagonist | activity at the Group 2 receptor mGluR3 (mGluR3): relatively potent agonist
